Where two headings read alike, the source gives them in different places. Blank lines part the entries; values can stand above or below the compound they belong to.
Key:
[1] = biological target: T1, 6xHis-tagged rat-truncated DYRK1A (residues 1-497) (Rattus norvegicus, UniProt Q63470); experiment: ELISA-based non-radioactive kinase assay, DYRK1A; type: biochemical
T1 construct: 6xHis-tagged rat-truncated DYRK1A (residues 1-497); 6xHis; made in house

[2] = biological target: T2, human DYRK2 isoform 1 (6xHis-tagged) (Homo sapiens, UniProt Q92630); experiment: ELISA-based non-radioactive kinase assay, DYRK2; type: biochemical
T2 sequence (Q92630 74-601 limits assumed): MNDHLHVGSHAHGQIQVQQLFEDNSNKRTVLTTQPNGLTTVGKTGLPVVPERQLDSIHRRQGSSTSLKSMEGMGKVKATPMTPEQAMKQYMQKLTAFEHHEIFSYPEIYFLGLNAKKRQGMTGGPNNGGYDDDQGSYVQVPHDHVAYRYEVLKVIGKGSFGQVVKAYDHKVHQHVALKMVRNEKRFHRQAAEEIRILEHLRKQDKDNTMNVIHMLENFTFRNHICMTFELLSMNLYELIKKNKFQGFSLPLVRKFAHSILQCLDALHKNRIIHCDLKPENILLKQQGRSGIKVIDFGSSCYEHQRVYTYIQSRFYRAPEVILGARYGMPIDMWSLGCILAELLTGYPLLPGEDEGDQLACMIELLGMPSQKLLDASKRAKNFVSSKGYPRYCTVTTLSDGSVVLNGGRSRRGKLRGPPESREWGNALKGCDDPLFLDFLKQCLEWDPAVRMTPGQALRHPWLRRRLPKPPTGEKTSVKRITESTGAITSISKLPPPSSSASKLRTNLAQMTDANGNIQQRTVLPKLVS
Experimental: (§1) DYRK1B was prepared from human DYRK1B isoform p65 as glutathione S-transferase fusion protein, and DYRK2 was prepared from human DYRK2 isoform 1 as 6xHis-tagged protein, as previously described.
(§2) For DYRK2, the reactions were performed exactly as described for DYRK1A. For DYRK1B, the assays were similarly conducted but with 30 ng GST-DYRK1B and a kinase reaction time of 60 min.

DYRK1A = details: cited from earlier work
DYRK1B = details: read-out: published IC50 DYRK1B; cited from earlier work
DYRK2 = details: read-out: published IC50 DYRK2; cited from earlier work
[3] = biological target: T3, human DYRK1B isoform p65 (GST fusion) (Homo sapiens, UniProt Q9Y463); experiment: ELISA-based non-radioactive kinase assay, DYRK1B; type: biochemical; details: 30 ng GST-DYRK1B, 60 min reaction
T3 construct: made in house
T3 sequence (Q9Y463 1-589 isoform Q9Y463-2): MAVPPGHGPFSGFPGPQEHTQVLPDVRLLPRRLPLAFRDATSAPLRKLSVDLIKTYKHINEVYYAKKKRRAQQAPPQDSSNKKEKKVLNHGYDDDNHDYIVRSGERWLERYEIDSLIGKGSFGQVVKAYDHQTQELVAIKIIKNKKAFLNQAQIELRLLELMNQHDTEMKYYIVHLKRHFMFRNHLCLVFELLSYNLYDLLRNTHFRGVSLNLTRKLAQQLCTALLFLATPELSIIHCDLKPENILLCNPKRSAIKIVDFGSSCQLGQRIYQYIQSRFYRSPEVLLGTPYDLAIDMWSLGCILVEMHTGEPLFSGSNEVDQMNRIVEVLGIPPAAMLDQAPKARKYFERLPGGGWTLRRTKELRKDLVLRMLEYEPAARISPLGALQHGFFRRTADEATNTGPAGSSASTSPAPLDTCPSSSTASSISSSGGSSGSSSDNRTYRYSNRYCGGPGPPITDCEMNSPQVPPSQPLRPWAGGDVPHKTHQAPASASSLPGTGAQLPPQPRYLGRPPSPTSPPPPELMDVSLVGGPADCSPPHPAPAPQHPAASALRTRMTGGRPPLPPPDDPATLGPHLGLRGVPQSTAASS
Experimental: as §1, §2

[4] = Pharmacokinetic studies in C57BL/6 mice (plasma and tissues); type: in vivo, mouse; details: PO (100 mg/kg)
Experimental: To overcome the generally poor PK profile of catechins, we developed a proprietary formulation that allows for the delivery of these drugs in high concentrations for oral (PO) or intranasal (IN) use. Our liquid formulation is based on the solubilizer and penetration enhancer (2-hydroxypropyl)-β-cyclodextrin (HP-β-CD), PEG-400, and water. This vehicle allows us to achieve high drug concentration in dosing solution (up to 20% w/w) when needed. PK studies were conducted for 1c in adult male and female C57BL/6 mice (n = 3/sex/time point) using (1) a single IV dose (5 mg/kg), (2) an IN dose (60 mg/kg, 5 µL of a clear solution/nostril/twice), and (3) a single PO dose (100 mg/kg). We analyzed the concentration of the drug in several tissues, including the brain, lungs, liver, and plasma. We observed that this class of molecules is stable in circulation; however, when the tissues are harvested for bioanalytical work, the drug undergoes rapid degradation, probably because of the direct contact with oxygen and metals, which catalyzes its rapid degradation/oxidation. We were able to stabilize the drug in blood by the immediate addition of ascorbic acid and TCEP [29]; however, the same was not possible with solid organs such as the brain and liver, which need to be collected through surgery and homogenized before any stabilizing agent can be added. Therefore, tissue PK data tend to vary.
C57BL/6J mice were given a single dose of drug via the IN or PO route. […] For PO delivery, we replaced water with saline. The volume for IN delivery was 5 µL/nostril, and the volume used for oral delivery was 10 mL/kg. After sacrifice, blood (500 µL) was collected into K2EDTA microtubes and kept on ice all times (must be centrifuged within 30 min of collection). Blood was centrifuged in EDTA vacuum at 4 °C at 15,000× g for 4 min; ~250 µL of plasma was collected into polyethylene tubes containing 50 µL of AA/TCEP stabilizing solution (20 mM ascorbic acid and 13 mM TCEP in 50 mM K2HPO4 buffer; the pH of the solution was adjusted to 6.5 using 2 M NaOH). Then, 200 µL of the collected plasma was mixed with (1) 24 µL of a solution of 10% ascorbic acid and 0.1% EDTA in 40 mM NaH2PO4; (2) 40 µL of 50 mM sodium phosphate (pH 7.4); (3) 500 units of β-D-glucuronidase type X-A from Escherichia coli (Sigma Chemical Co, St Louis, MO, USA), and (4) 4 units of sulfatase type VIII from abalone entrails (Sigma Chemical Co). The mixture was incubated at 37 °C for 45 min. Plasma was then extracted by the addition of 0.5 mL ACN; the mixture was vortex-mixed for 2 min, then snap-frozen with isopropanol/carbon dioxide dry ice, and the upper layer of ACN was removed. The process was repeated another 2 times. The ACN fractions were pooled into a polyethylene tube kept on ice. The combined fractions were evaporated under a gentle stream of nitrogen at ambient temperature. The residue obtained after evaporation was reconstituted in 200 µL of 75 mM citric acid//25 mM ammonium acetate: ACN (75:25 by vol), and vortexed vigorously for 5 min, and 20 µL of the resulting solution was injected into the LC-MS/MS column.
Drug analysis in tissues: About ~0.4 g of the tissue was homogenized with 1 mL of ice-cold 0.4 M sodium phosphate buffer containing 6 mg of ascorbic acid and 0.5 mg of Na2EDTA (final pH of 6.5). After centrifugation at 4 °C at 15,000× g for 4 min, the supernatant was collected into polyethylene tubes containing 50 µL of the AA/TCEP stabilizing solution. Then 1 U of sulfatase and 250 U of β-glucuronidase were added to the abovementioned homogenized mixture. Samples were incubated at 37 °C for 45 min, then extracted, dried, and resuspended in a manner similar to that for plasma. Samples were then analyzed by LC-MS/MS.

[5] = test system: LPS-induced inflammation in C57BL/6J mice; experiment: LPS-induced inflammation model; type: in vivo, mouse; details: positive control 1 mg/kg PO, LPS i.p. 750 µg/kg
Experimental: Neuroinflammation is an important factor contributing to cognitive impairment and neurodegenerative diseases such as PD, and the administration of LPS is frequently used to study neuroinflammation-associated diseases in mice.
Each group consisted of six male mice. […] Animals were pretreated for 3 days with the drug of choice; then, treatment with LPS commenced on day 0, and on the 5th day of LPS treatment, the drug was administered half an hour before LPS injection. One hour after LPS treatment, the animals were anesthetized with a mixture of ketamine, xylazine 2%, atropine, and saline (4:2.5:1:2.5). The body temperature of mice under anesthesia was maintained by applying a heating blanket and monitored using a rectal thermometer. After anesthesia, the animals underwent cardiac perfusion with ice-cold saline for three minutes (3 mL/minute via peristaltic pump) via the left ventricle. The right atrium was cut as an outflow route. The right hemisphere was post-fixed overnight in 4% PFA in PBS at 4 °C and stored in 1xPBS containing 0.1% (v/w) sodium azide at 4 °C. The left hemisphere, hippocampus, cortex, midbrain, and brainstem were microdissected, immersed in liquid nitrogen in separate tubes (with one-fifth of the rest of the brain tissue), and stored in microfuge tubes at −80°. TNFα (in both plasma and the hippocampus) was analyzed with ELISA, and the p-tau (AT-8 antibody) level was recorded in the hippocampus and cortex with WB.

[6] = both sexes, C57BL/6, mouse, plasma

SMILES: COc1cc(N2CCN(C)CC2)ccc1Nc1nccc(-c2cn(C)c3cnccc23)n1 [AZ-191]
IC50 [1]: 0.098 µM | IC50 [2]: 1.72 µM | IC50 (DYRK1A; read-out: published IC50 DYRK1A): 0.088 µM | IC50 (DYRK1B): 0.017 µM | IC50 (DYRK2): 1.89 µM

IC50 ([1]; read-out: DYRK1A IC50): 0.035 µM | IC50 [3]: 0.042 µM | IC50 [2]: 0.258 µM
SMILES: O=C(O[C@@H]1Cc2c(O)cc(O)cc2O[C@H]1c1cc(O)c(O)c(O)c1)c1cc(O)c(O)c(O)c1F [Compound 1a]

improvement in anti-DYRK1A activity compared to EGCG [1]: eightfold | IC50 ([1]; read-out: DYRK1A IC50): 0.028 µM | IC50 [3]: 0.045 µM | IC50 [2]: 0.181 µM | bioavailability (in words) [4]: much lower than that of 1c | Tlast ([4]; plasma): 24 h | AUC(0-inf) [4, 6]: 0.472 µg·h/mL | AUC(0-t) [4, 6]: 0.379 µg·h/mL | Cmax [4, 6]: 0.131 µg/mL | Tmax [4, 6]: 0.5 h | half-life [4, 6]: 12.7 h
SMILES: O=C(O[C@@H]1Cc2c(O)cc(O)cc2O[C@H]1c1cc(O)c(O)c(O)c1)c1c(F)c(O)c(O)c(O)c1F [Compound 1b]

IC50 ([1]; read-out: DYRK1A IC50): 0.152 µM
SMILES: COc1c(O)c(O)cc(C(=O)O[C@@H]2Cc3c(O)cc(O)cc3O[C@H]2c2cc(O)c(O)c(O)c2)c1F [Compound 1d]

IC50 ([1]; read-out: DYRK1A IC50): 0.125 µM
SMILES: COc1c(O)c(O)c(F)c(C(=O)O[C@@H]2Cc3c(O)cc(O)cc3O[C@H]2c2cc(O)c(O)c(O)c2)c1F [Compound 1e]

IC50 ([1]; read-out: DYRK1A IC50): 0.252 µM
SMILES: O=C(O[C@@H]1Cc2c(O)cc(O)cc2O[C@H]1c1cc(O)c(O)c(O)c1)c1cc(O)c(O)c(OC(F)F)c1 [Compound 1f]

IC50 ([1]; read-out: DYRK1A IC50): 0.136 µM
SMILES: O=C(O[C@@H]1Cc2c(O)cc(O)cc2O[C@H]1c1cc(O)c(O)c(O)c1)c1cc(OC(F)F)c(O)c(O)c1F [Compound 1g]

IC50 ([1]; read-out: DYRK1A IC50): 0.356 µM
SMILES: CC(C)Oc1c(O)c(O)c(F)c(C(=O)O[C@@H]2Cc3c(O)cc(O)cc3O[C@H]2c2cc(O)c(O)c(O)c2)c1F [Compound 1h]

SMILES: C[C@@H]1C[C@H]2[C@@H]3CCC4=CC(=O)C=C[C@]4(C)[C@@]3(F)[C@@H](O)C[C@]2(C)[C@@]1(O)C(=O)CO [Dexamethasone, reference compound]
efficacy in plasma [5]: high efficacy

SMILES: O=C(O[C@@H]1Cc2c(O)cc(O)cc2O[C@@H]1c1cc(O)c(O)c(O)c1)c1cc(O)c(O)c(O)c1 [EGCG, epigallocatechin gallate, reference compound]
IC50 [2]: 1.49 µM | AUC(0-inf) [4, 6]: 0.395 µg·h/mL | AUC(0-t) [4, 6]: 0.36 µg·h/mL | Cmax [4, 6]: 0.055 µg/mL | half-life [4, 6]: 5.02 h | bioavailability ([4]; both sexes, C57BL/6, mouse, plasma, po, 100 mg/kg, plasma, read-out: F (absolute bioavailability)): 2% | IC50 (DYRK1A; allosteric inhibitor, read-out: DYRK1A in vitro IC50): 0.3 to 0.4 µM

SMILES: O=C(O[C@@H]1Cc2c(O)cc(O)cc2O[C@H]1c1cc(O)c(O)c(O)c1)c1cc(O)c(O)c(O)c1 [GCG, reference compound]
IC50 [2]: 0.574 µM

IC50 ([1]; read-out: DYRK1A IC50): 0.206 µM
SMILES: COc1cc(C(=O)OC2Cc3c(O)cc(O)cc3OC2c2cc(O)c(O)c(O)c2)cc(O)c1O (stereo not shown) [GCG-3”OMe, reference compound]
